{
  "source": "patent US9938516B2",
  "about": "“Non-natural amino acid tRNA synthetases for para-methylazido-L-phenylalanine” (SUTRO BIOPHARMA, INC., priority 2013, dated 2018)",
  "experiment": "copper-free click conjugation kinetics with DBCO-PEG",
  "type": "physicochemical",
  "conditions": "10-fold molar excess DBCO-PEG; 25° C., ionic strength 0.5 M (KCl), 0.005% Tween-20, phosphate buffer",
  "protocol": "The small molecule conjugation kinetics of pAzF and pAMF were compared. In particular, pAzF and pAMF were reacted at increasing concentrations with a 10-fold molar excess of dibenzocyclooctyl-polyethylene glycol (DBCO-PEG) compound (FIG. 2A and FIG. 2C) in a copper-free click reaction. First-order kinetics at 25° C., ionic strength 0.5 M (KCl), and 0.005% Tween-20 in phosphate buffer were determined under pseudo-first-order conditions in triplicate, using a SpectraMax M5 plate reader with 96-well polystyrene plates (Molecular Devices, Sunnyvale, Calif.). The formation of conjugated product was measured by the decrease in absorbance of the strained cyclooctoalkyne DBCO at 306 nm in the presence of increasing concentrations of pAzF or pAMF. The second-order rate constants were calculated according to kcat (M−1 sec-1)=kobs/[Azido].",
  "data": [
    {"smiles": "[N-]=[N+]=NCc1ccc(C[C@H](N)C(=O)O)cc1", "note": "[pAMF, para-azidomethyl-L-phenylalanine]", "values": [
      {"measurement": "reaction rate relative to pAzF", "value": "seven-fold higher"}
    ]}
  ]
}
